Data published in patent publication US10390536B2, “Methods, compounds and compositions for repelling insects and/or arachnids” (National Center for Scientific Research “Demokritos”, priority 2013, dated 2019).

Columns and labels:
Type in all cases: in vivo
[1] = test system: Anopheles gambiae (Giles) ss strain 16CSS female mosquitoes; experiment: warm body repellence assay (mosquito landings); settings: for median repellency (%) at 20 nmol/cm2: Anopheles gambiae, 2 min, 20 nmole per cm^2, read-out: Median Repellency (%)
Experimental: To test the behavior of female mosquitoes to an essential oil containing OBP binding components, a previously described repellence assay [Kröber et al. (2010). An In Vitro Assay for Testing Mosquito Repellents Employing a Warm Body and Carbon Dioxide as a Behavioral Activator. Journal of the American Mosquito Control Association 26(4) 381-386] was conducted that measures the number of mosquito landings on a warm surface onto which an essential oil containing at least one candidate compound was applied.
To conduct a repellency assay, a selected essential oil or ethanol negative control was applied to a warm body at a dose of about 3.8 μg/cm^2 and allowed to dry for 40 seconds in order to allow evaporation of the solvent before introduction into the test cage with mosquitoes. As positive control for repellence, DEET dissolved in ethanol was applied to the warm body at the same dose. The treated warm body in conjunction with a pulse of carbon dioxide was introduced into the test cage containing fifty Anopheles gambiae (Giles) ss strain 16CSS female mosquitoes that were 4-11 days old and the number of mosquito landings on the warm body occurring within a 2-minute period was counted. Each candidate compound was tested in five different cages (i.e., 250 female mosquitoes) in a randomized design, and the ethanol control and up to four candidate compounds were tested in each cage. Raw data on numbers of landings by mosquitoes were analyzed using a linear mixed model accounting for treatment, experimental day, the individual cage, the number of females per cage and the level of the carbon dioxide pulse in ppm using R (R Development Core Team, 2010) and the packages LME4 (Bates and Maechler, Ime4: Linear mixed-effects models using {S4} classes.{R} package version 0.999375-32, 2009) and NLME (Pinheiro et al, nlme: Linear and Nonlinear Mixed Effects Models, 2010; the R Development Core Team, R: A Language and Environment for Statistical Computing, 2010). Repellent values were calculated from counted landings on treatments versus the overall landings on pooled controls.
To test the behavior of female mosquitoes to a candidate compound identified in Example 5, behavioral assays were made using the identified compounds. The repellent assay was performed as described in Example 3, except that candidate compounds were dissolved in ethanol and tested initially at doses between 1.0 and 5.0 μg/cm^2 (about 5-31.5 nmole/cm^2) and, whenever necessary, at lower and/or higher doses as well. Besides the compounds identified in Example 5, compounds related to these were also tested including ethyl-cinnamate and butyl-cinnamate (Table 4).
To test the behavior of female mosquitoes to various combinations of candidate compounds identified in Example 6, repellence assays were made as in Example 3. These repellent assays were made to compare the effectiveness of the strongest repellent compounds identified in Example 6, including, without limitation, carvacrol, ethyl cinnamate, butyl cinnamate, and cumin alcohol with that of DEET.
The doses tested were 2, 4, 6 10 and 20 nmol/cm^2 for the single compounds. The binary 50:50 mixtures were tested at 2, 6, 10 and 20 nmol/cm^2, with each compound making up half the amount tested, so that, for example, the 2 nmol/cm^2 concentration in column A+B represents 1 nmol/cm^2 of A and 1 nmol/cm^2 of B in a binary mixture. DEET was also tested at 25 nmol (top response) and carvacrol was tested at the additional dose of 2.5 nmol (second from left within its column). As an indication, DEET at 20 nmol/cm^2=3.8 μg/cm^2. Mosquitoes were activated using a puff of CO2 from a gas tank upon introduction of the warm body into the test cage containing 50±5 A. gambiae females and mosquito landings were counted for 2 minutes. Each treatment (dose) was tested using five test cages, i.e. on a total of 250 female A. gambiae. […]

[2] = test system: Anopheles gambiae s.l.; experiment: experimental hut field trial of spatial repellence, Anopheles; settings: single compound, 1 ml in open vial in MM-X trap, per night
Experimental: (§1) To test the effects of repellent compounds or compositions disclosed herein on mosquitoes in a controlled environment resembling actual living quarters and conditions, field trials with standardized experimental huts were conducted at Kainji Dam in North Central Nigeria.
(§2) Six such huts were built in a straight line, and the distance between huts was 11 meters. These huts follow a traditional square design, the walls are built with concrete blocks that are subsequently plastered with cement, each wall has a window. The ceiling is plywood and the roof is thatched with eaves that are open, thereby allowing free flow of air into and out of the hut, and thus entry and exit of mosquitoes. There is a door for entry and exit. Two opposing sides of each hut have window exit traps and screened verandas to capture mosquitoes leaving via the windows or eaves. Each hut is raised off the ground on a concrete platform and surrounded by a moat filled with water in order to prevent ants from entering. Each hut is fitted with a mattress and an untreated bed net for sleepers. These huts are similar in design and concept to those used previously elsewhere for studying mosquito behavior and measuring the efficacy of various mosquito control products or intervention methods in Tanzania and Gambia. For design parameters refer to WHOPES 2005. The huts are adjacent to a tributary of the River Niger at a distance of 10 km from the Kainji Dam site and face rice fields known to harbor permanent mosquito breeding sites. The mosquitoes endemic to this area of Nigeria are highly endophillic, that is, they rest mainly indoors.
(§3) Human volunteers that participated as sleepers in this field trial were provided with anti-malarial chemical prophylaxis on a weekly basis, and the protocols used herein were reviewed and approved by the Research Ethics Review Committee of the Nigerian Institute of Medical Research. Six male adult volunteers, aged between 25 and 35 years old, were recruited to sleep in the huts described above. Sleepers were allocated to huts randomly for each series of trials, and this randomization process occurred nightly. The volunteers entered the huts by 21:00 each night and remained inside the huts until 06:30 the following morning. Each morning, the windows were closed and the exit traps blocked with a piece of cloth to prevent mosquitoes that entered from exiting. The traps were then put in a freezer at −20° C. to kill all the mosquitoes before being emptied for identification. By means of a sucking aspirator the verandas and rooms were visually searched for live mosquitoes and any insects found were collected in labelled cups. A 10-minute search was conducted for each hut (room and veranda traps). The exit traps were emptied into a labelled cup and all the mosquitoes placed in the freezer at −20° C. for about 30 minutes before morphological identification.
(§4) The Mosquito Magnet trap Model-X (MM-X trap made by the firm formerly known as American Biophysics (ABC), USA) is a 12V battery operated counter-flow trap that was used as the repellent dispersing device to evaluate the efficacy of repellent compounds or compositions disclosed herein. Four compounds, carvacrol, cumin alcohol, ethyl cinnamate, and butyl cinnamate, were evaluated in comparison to DEET as a nonproprietary conventional repellent in a first experiment. The chemical compounds were provided in liquid form: carvacrol (98%), butyl cinnamate (98%), ethyl cinnamate (98%), cumin alcohol (97%) and DEET (97%). […]

[3] = test system: Culex spp.; experiment: experimental hut field trial of spatial repellence, Culex; settings: single compound, 1 ml in open vial in MM-X trap, per night
Experimental: as §1, §2, §3, §4

[4] = test system: sand fly Lutzomyia longipalpis; experiment: warm body repellence assay with sand flies; settings: 2 minutes, control 48
Experimental: To test the effects of repellent compounds or compositions disclosed herein on other blood-feeding arthropods, a warm body repellence assay (Krober et. al. (2010). An In Vitro Assay for Testing Mosquito Repellents Employing a Warm Body and Carbon Dioxide as a Behavioral Activator. Journal of the American Mosquito Control Association 26(4): 381-386] was conducted using the sand fly Lutzomyia longipalpis (Diptera: Psychodidae), the principal vector of Leishmania (or leismaniasis) in the Americas.
[…] Fifty L. longipalpis sandflies (male:female ratio 1:1) of 3-7 days old were tested during the scotophase under conditions described for A. gambiae in Example 6. The test cages were lined with filter paper. Reduction in the number of landings by L. longipalpis sand fly females on a warm body treated with different test products compared to the control with solvent (ethanol p.a.) alone was used to evaluate repellence. Tests were conducted in complete darkness using IR LEDs to illuminate the warm body. Landings counted during 2 minutes were normalized by experimental day, cage, and number of females by a mixed linear model before testing for differences.

[5] = 2 nmol (per cm^2, total for mixtures, 50:50)
[6] = 4 nmol (per cm^2, total for mixtures, 50:50)
[7] = 6 nmol (per cm^2, total for mixtures, 50:50)
[8] = 20 nmol (per cm^2, total for mixtures, 50:50)

In the case of `CCCCOC(=O)C=Cc1ccccc1` [butyl-cinnamate, butyl 3-phenylprop-2-enoate], the Median repellence % [1, 5] is reported as −1%, the Median repellence % [1, 6] is reported as 28% and the Median repellence % [1, 7] is reported as 61%. It also gave a Median repellence % ([1]; 10 nmol (per cm^2, total for mixtures, 50:50)) of 68%, a Median repellence % [1, 8] of 89% and a median repellency (%) at 20 nmol/cm2 [1] of 88.7%. The “spatial repellent effect, induced exophily (in words)” value (“spatial repellent effect” below) [2] was “significantly lower than that of DEET”, the “spatial repellent effect” value [3] was “significantly lower than that of DEET” and the Median of landings ([4]; 20 nmol/cm^2) was 49. It also gave a Median of landings ([4]; 200 nmol/cm^2) of 40.
In the case of `CCOC(=O)C=Cc1ccccc1` [(E)-ethyl-cinnamate, ethyl 3-phenylprop-2-enoate], the Median repellence % [1, 5] is reported as −18%, the Median repellence % [1, 6] is reported as 18% and the Median repellence % [1, 7] is reported as 35%. For the same compound, the Median repellence % [1, 8] was 83%, the median repellency (%) at 20 nmol/cm2 [1] was 82.8% and the “spatial repellent effect” value [2] was “significantly lower than that of DEET”. The “spatial repellent effect” value [3] was “significantly lower than that of DEET”.
